molecular target: MAPKAPK2 (Homo sapiens, UniProt P49137); assay: MK2 Enzymatic Assay; assay type: biochemical; settings: 0.5 nM MAPKAPK2, 3 μM ATP, 2 μM Ser/Thr4 peptide, 23° C., values given as concentration bins
In short: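 MAPKAPK2 (2× stock 1 nM) and peptide substrate (2× 4 μM) were preincubated 20 min, then started with ATP (2× stock 6 μM) for 120 min. After 120 min development, coumarin/fluorescein emission ratio gave percent phosphorylation against 0% and 100% phosphopeptide controls.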

Sequence of MAPKAPK2 (P49137 whole entry, species assumed): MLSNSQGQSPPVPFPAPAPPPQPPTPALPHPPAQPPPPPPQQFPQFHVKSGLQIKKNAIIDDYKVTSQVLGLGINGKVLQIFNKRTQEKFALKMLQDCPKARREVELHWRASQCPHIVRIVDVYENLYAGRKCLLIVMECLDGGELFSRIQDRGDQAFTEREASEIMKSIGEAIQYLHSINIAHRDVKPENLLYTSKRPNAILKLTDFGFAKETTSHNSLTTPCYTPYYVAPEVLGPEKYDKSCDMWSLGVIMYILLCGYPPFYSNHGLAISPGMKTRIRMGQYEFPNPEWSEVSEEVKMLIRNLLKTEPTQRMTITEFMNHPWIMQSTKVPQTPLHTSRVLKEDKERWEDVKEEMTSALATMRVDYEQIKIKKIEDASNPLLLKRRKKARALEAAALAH

`CN(C)C[C@H]1CN(c2ccc3c(c2)Cn2cc(-c4ccc(C#N)cc4)cc2-c2nccn2-3)C[C@@H]1O` [Compound 137, 4-(7-((3S,4R)-3-((dimethylamino)methyl)-4-hydroxypyrrolidin-1-yl)-9H-benzo[e]imidazo[2,1-c]pyrrolo[1,2-a][1,4]diazepin-12-yl)benzonitrile] and `CN(C)C[C@H]1CN(c2ccc3c(c2)Cn2cc(-c4ccc(F)cc4)cc2-c2nccn2-3)C[C@H]1O` [Compound 349, (3S,4S)-4-((dimethylamino)methyl)-1-(12-(4-fluorophenyl)-9H-benzo[e]imidazo[2,1-c]pyrrolo[1,2-a][1,4]diazepin-7-yl)pyrrolidin-3-ol] cannot be ordered by IC50: less than 50 nM for the first, less than 50 nM for the second.

`OC1CN(c2ccc3c(c2)Cn2cc(-c4ccc(F)cc4)cc2-c2nccn2-3)CC1CN1CCC1` (single isomer, unassigned) [Compound 469] and `CNC[C@H]1CN(c2ccc3c(c2)Cn2cc(-c4ccc(F)cc4)cc2-c2nccn2-3)C[C@@H]1O` [Compound 363, (3R,4S)-1-(12-(4-fluorophenyl)-9H-benzo[e]imidazo[2,1-c]pyrrolo[1,2-a][1,4]diazepin-7-yl)-4-((methylamino)methyl)pyrrolidin-3-ol] cannot be ordered by IC50: less than 50 nM for the first, less than 50 nM for the second.

First: CN1CC2(CCN(c3ccc4c(n3)Cn3cc(-c5ccc(C#N)cc5)cc3-c3nccn3-4)C2)C1 [Compound 297, 4-(7-(2-methyl-2,6-diazaspiro[3.4]octan-6-yl)-9H-imidazo[2,1-c]pyrido[3,2-e]pyrrolo[1,2-a] [1,4]diazepin-12-yl)benzonitrile]
Second: CN(C)C[C@H]1CN(c2ccc3c(n2)Cn2cc(-c4ccc(C#N)cc4)cc2-c2nccn2-3)C[C@@H]1O [Compound 306, 4-(7-((3S,4R)-3-((dimethylamino)methyl)-4-hydroxypyrrolidin-1-yl)-9H-imidazo[2,1-c]pyrido[3,2-e]pyrrolo[1,2-a][1,4]diazepin-12-yl)benzonitrile]
The IC50 of the first is higher: 50 to 100 nM for the first, less than 50 nM for the second. The second is the more potent here.

Compared with `CN(C)[C@@H]1CN(c2ccc3c(c2)Cn2cc(-c4ccc(C#N)cc4)cc2-c2nncn2-3)C[C@@H]1O` [Compound 83, 4-(7-((3R,4S)-3-(dimethylamino)-4-hydroxypyrrolidin-1-yl)-9H-benzo[e]pyrrolo[1,2-a] [1,2,4]triazolo[3,4-c][1,4]diazepin-12-yl)benzonitrile], `CN(C)C1CN(c2ccc3c(c2)Cn2cc(-c4ccc(C#N)cc4)cc2-c2nnnn2-3)C1` [Compound 235, 4-(7-(3-(dimethylamino)azetidin-1-yl)-9H-benzo[e]pyrrolo[1,2-a]tetrazolo[5,1-c][1,4]diazepin-12-yl)benzonitrile] is higher in IC50: 50 to 100 nM for the first, 100 to 200 nM for the second.

First: N#Cc1ccc(-c2cc3n(c2)Cc2cc(N4CC[C@H]5NCC[C@@H]54)ncc2-n2cnnc2-3)cc1 (racemic) [Compound 314, 4-(7-(trans-hexahydropyrrolo[3,2-b]pyrrol-1(2H)-yl)-9H-pyrido[3,4-e]pyrrolo[1,2-a][1,2,4]triazolo[3,4-c][1,4]diazepin-12-yl)benzonitrile]
Second: CN(C)[C@@H]1CCN(c2cc3c(cn2)-n2cnnc2-c2cc(-c4ccc(C#N)cc4)cn2C3)C1 [Compound 319, (R)-4-(7-(3-(dimethylamino)pyrrolidin-1-yl)-9H-pyrido[3,4-e]pyrrolo[1,2-a][1,2,4]triazolo[3,4-c][1,4]diazepin-12-yl)benzonitrile]
The IC50 of the first is lower: less than 50 nM for the first, 50 to 100 nM for the second. The first is the more potent here.

First: CN[C@H]1CCN(c2ccc3c(c2)Cn2cc(-c4ccc(F)cc4)cc2-c2ncnn2-3)C1 [Compound 410, (S)-1-(12-(4-fluorophenyl)-9H-benzo[e]pyrrolo[1,2-a][1,2,4]triazolo[5,1-c][1,4]diazepin-7-yl)-N-methylpyrrolidin-3-amine]
Second: C[C@H](CO)NC[C@@H]1CCN(c2ccc3c(c2)Cn2cc(-c4ccc(F)cc4)cc2-c2ncnn2-3)C1 [Compound 419, (R)-2-((((S)-1-(12-(4-fluorophenyl)-9H-benzo[e]pyrrolo[1,2-a][1,2,4]triazolo[5,1-c][1,4]diazepin-7-yl)pyrrolidin-3-yl)methyl)amino)propan-1-ol]
The IC50 of the first is higher: 50 to 100 nM for the first, less than 50 nM for the second.

`Fc1ccc(-c2cc3n(c2)Cc2cc(N4CCC5(C4)CN(C4CCCC4)C5)ccc2-n2ccnc2-3)cc1` [Compound 375, 7-(2-cyclopentyl-2,6-diazaspiro[3.4]octan-6-yl)-12-(4-fluorophenyl)-9H-benzo[e]imidazo[2,1-c]pyrrolo[1,2-a][1,4]diazepine] and `CN(C)C1CCN(c2ccc3c(c2)Cn2cc(-c4ccc(F)cc4)cc2-c2nccn2-3)CC1` [Compound 381, 1-(12-(4-fluorophenyl)-9H-benzo[e]imidazo[2,1-c]pyrrolo[1,2-a][1,4]diazepin-7-yl)-N,N-dimethylpiperidin-4-amine] cannot be ordered by IC50: less than 50 nM for the first, less than 50 nM for the second.

`C[C@H](CO)NC[C@H]1CCN(c2ccc3c(c2)Cn2cc(-c4ccc(C#N)cc4)cc2-c2nccn2-3)C1` [Compound 136, 4-(7-((R)-3-((((R)-1-hydroxypropan-2-yl)amino)methyl)pyrrolidin-1-yl)-9H-benzo[e]imidazo[2,1-c]pyrrolo[1,2-a][1,4]diazepin-12-yl)benzonitrile] and `C[C@H](CO)NC[C@H]1CCN(c2ccc3c(c2)Cn2cc(-c4ccc(F)cc4)cc2-c2nccn2-3)C1` [Compound 355, (R)-2-((((R)-1-(12-(4-fluorophenyl)-9H-benzo[e]imidazo[2,1-c]pyrrolo[1,2-a][1,4]diazepin-7-yl)pyrrolidin-3-yl)methyl)amino)propan-1-ol] cannot be ordered by IC50: less than 50 nM for the first, less than 50 nM for the second.

Compared with `CN(C)[C@@H]1CN(c2ccc3c(c2)Cn2cc(-c4ccc(F)cc4)cc2-c2ncnn2-3)C[C@H]1CO` (relative stereo) [Compound 504, (Trans-4-(dimethylamino)-1-(12-(4-fluorophenyl)-9H-benzo[e]pyrrolo[1,2-a][1,2,4]triazolo[5,1-c][1,4]diazepin-7-yl)pyrrolidin-3-yl)methanol], `CN(C)C[C@@H]1CN(c2ccc3c(c2)Cn2cc(-c4ccc(F)cc4)cc2-c2ncnn2-3)C[C@H]1O` [Compound 422, (3S,4R)-4-((dimethylamino)methyl)-1-(12-(4-fluorophenyl)-9H-benzo[e]pyrrolo[1,2-a][1,2,4]triazolo[5,1-c][1,4]diazepin-7-yl)pyrrolidin-3-ol] is lower in IC50: 100 to 200 nM for the first, less than 50 nM for the second.

First: C[C@H](CO)NC[C@H]1CCN(c2ccc3c(n2)Cn2cc(-c4ccc(F)cc4)cc2-c2nccn2-3)C1 [Compound 434, (R)-2-((((R)-1-(12-(4-fluorophenyl)-9H-imidazo[2,1-c]pyrido[3,2-e]pyrrolo[1,2-a][1,4]diazepin-7-yl)pyrrolidin-3-yl)methyl)amino)propan-1-ol]
Second: C[C@H](CO)NC[C@H]1CCN(c2cc3c(cn2)-n2ccnc2-c2cc(-c4ccc(F)cc4)cn2C3)C1 [Compound 442, (R)-2-((((R)-1-(12-(4-fluorophenyl)-9H-imidazo[2,1-c]pyrido[3,4-e]pyrrolo[1,2-a][1,4]diazepin-7-yl)pyrrolidin-3-yl)methyl)amino)propan-1-ol]
The IC50 of the first is lower: less than 50 nM for the first, 100 to 200 nM for the second. The first is the more potent here.

First: CNC[C@@H]1CN(c2ccc3c(c2)Cn2cc(-c4ccc(F)cc4)cc2-c2ncnn2-3)C[C@@H]1F [Compound 499, 1-((3R,4R)-4-fluoro-1-(12-(4-fluorophenyl)-9H-benzo[e]pyrrolo[1,2-a][1,2,4]triazolo[5,1-c] [1,4]diazepin-7-yl)pyrrolidin-3-yl)-N-methylmethanamine]
Second: CN[C@@H]1CN(c2ccc3c(c2)Cn2cc(-c4ccc(F)cc4)cc2-c2ncnn2-3)C[C@H]1CO (relative stereo) [Compound 505, (Trans-1-(12-(4-fluorophenyl)-9H-benzo[e]pyrrolo[1,2-a][1,2,4]triazolo[5,1-c][1,4]diazepin-7-yl)-4-(methylamino)pyrrolidin-3-yl)methanol]
The IC50 of the first is lower: less than 50 nM for the first, 50 to 100 nM for the second. The first is the more potent here.

`CN(C)C[C@@H]1CN(c2ccc3c(c2)Cn2cc(-c4ccc(F)cc4)cc2-c2nccn2-3)C[C@H]1O` [Compound 357, (3S,4R)-4-((dimethylamino)methyl)-1-(12-(4-fluorophenyl)-9H-benzo[e]imidazo[2,1-c]pyrrolo[1,2-a][1,4]diazepin-7-yl)pyrrolidin-3-ol] and `CN(C)C[C@@H]1CN(c2ccc3c(c2)Cn2cc(-c4ccc(F)cc4)cc2-c2nccn2-3)C[C@@H]1O` [Compound 350, (3R,4R)-4-((dimethylamino)methyl)-1-(12-(4-fluorophenyl)-9H-benzo[e]imidazo[2,1-c]pyrrolo[1,2-a][1,4]diazepin-7-yl)pyrrolidin-3-ol] cannot be ordered by IC50: less than 50 nM for the first, less than 50 nM for the second.

First: Fc1ccc(-c2cc3n(c2)Cc2cc(N4CCC5(CNC5)C4)ccc2-n2nnnc2-3)cc1 [Compound 398, 12-(4-fluorophenyl)-7-(2,6-diazaspiro[3.4]octan-6-yl)-9H-benzo[e]pyrrolo[1,2-a]tetrazolo[5,1-c][1,4]diazepine]
Second: N#Cc1ccc(-c2cc3n(c2)Cc2cc(N4CCC5(CNC5)C4)ncc2-n2cnnc2-3)cc1 [Compound 318, 4-(7-(2,6-diazaspiro[3.4]octan-6-yl)-9H-pyrido[3,4-e]pyrrolo[1,2-a][1,2,4]triazolo[3,4-c][1,4]diazepin-12-yl)benzonitrile]
The IC50 of the first is lower: less than 50 nM for the first, 100 to 200 nM for the second. The first is the more potent here.

First: Cc1nnc2n1-c1ccc(N3CC[C@H](CN(C)C)C3)cc1Cn1cc(-c3ccc(C#N)cc3)cc1-2 [Compound 229, 4-(7-((R)-3-((dimethylamino)methyl)pyrrolidin-1-yl)-3-methyl-9H-benzo[e]pyrrolo[1,2-a] [1,2,4]triazolo[3,4-c][1,4]diazepin-12-yl)benzonitrile]
Second: Cc1cc(N2C[C@@H](CN(C)C)[C@H](O)C2)cc2c1-n1ccnc1-c1cc(-c3ccc(F)cc3)cn1C2 [Compound 512, (3S,4R)-4-((dimethylamino)methyl)-1-(12-(4-fluorophenyl)-5-methyl-9H-benzo[e]imidazo[2,1-c]pyrrolo[1,2-a][1,4]diazepin-7-yl)pyrrolidin-3-ol]
The IC50 of the first is lower: 50 to 100 nM for the first, 500 to 1000 nM for the second.

`O=C1N[C@@H]2CN(c3ccc4c(c3)Cn3cc(-c5ccc(F)cc5)cc3-c3nccn3-4)C[C@@H]2O1` [Compound 481, (3aR,6aS)-5-(12-(4-fluorophenyl)-9H-benzo[e]imidazo[2,1-c]pyrrolo[1,2-a][1,4]diazepin-7-yl)hexahydro-2H-pyrrolo[3,4-d]oxazol-2-one] showed an IC50 of 200 to 1000 nM.

Source: patent publication US10562909B2, “Fused quadracyclic compounds, compositions and uses thereof” (Tabomedex Biosciences, LLC, priority 2016, dated 2020)
